Data on 1 compound can be found in article PMC13267113 (npj Drug Discovery, 2025).

Molecules are shown by their SMILES. ≈ marks a conversion by molar mass, not a printed value. Where only a bound is given, the exact number is not on record here.

As a reminder, the IC50 is the concentration at which inhibition is half-maximal. What is called hepatocyte CLint is the capacity of the preparation to metabolise the compound, expressed as a volume cleared per time. Low values mean slow turnover, high ones rapid turnover. One may read the solubility as the dissolved amount per volume that the medium holds.

Series [1] deals with T1, human DNA topoisomerase IIα (TOP2A) (Homo sapiens, UniProt P11388).
T1 construct: purchased Inspiralis
The series can be described thus: human topoisomerase II alpha decatenation assay. The format is biochemical. The settings on record: n = 3, read-out: IC50 against TOP2A.
Method: Inhibition of topoisomerase activity was examined using the human topoisomerase II alpha decatenation assay kit (Inspiralis) as indicated by the manufacturer. Briefly, a compound dilution series was prepared in DMSO. Water, dilution buffer, assay buffer, plasmid and enzyme were mixed with the compound solution and incubated at 37 °C for 30 min. A positive control (100% activity) was prepared without the compound, and a negative control (0% activity) was prepared without the compound and the enzyme. The reaction was stopped by adding gSTEB-buffer and chloroform/isoamylalcohol (24:1 v/v). The samples were vortexed and centrifuged before running gel electrophoresis. The gel was stained with ethidium bromide and imaged using a Fusion Fx gel imager (Vilber Lourmat). Subsequent analysis was done using ImageJ and GraphPad Prism (Version 10.0.2).

Another series deals with HepG2 (human, liver). The series can be described thus: MTT cytotoxicity HepG2. Type of series: cell-based. The note with it: 72 h, n = 3. The procedure:
(§1) All cell types were cultivated at 37 °C with 5% CO2. HepG2, HEK293, HCT116, CHO-K1, HeLa-CCL-2 and Huh-7.5 were purchased from ATCC. The respective cell media (Gibco) were supplemented with 10% FBS (Gibco) before usage. Cells were used between passages #5 and #30. To obtain biological repeats, cells were split separately for at least two passages.
(§2) Cells were washed with PBS and 0.5 mL trypsin was added. Afterwards, cells were incubated for 5 min before adding 10 mL medium containing 10% FBS. Per well, 120 µL cell suspension (5 × 10^4 cells/mL) was seeded in transparent 96-well cell bind plates and incubated for 2 h (37 °C, 5% CO2). A dilution series (1:3) of test compounds was prepared in respective media containing 10% FBS and added (60 µL) to the prepared cell plate. Cells were incubated for a further 72 h (37 °C, 5% CO2). Next, 20 µL MTT (5 mg/mL in PBS) was added to each well and incubated for 2 h (37 °C, 5% CO2). The wells were emptied and 100 µL isopropanol/10 N HCl (1000:4) per well was added.
(§3) The plates were analyzed by measuring the absorbance at 570 nm (plate reader Infinite® 200 Pro, Tecan). After normalization of data to the respective solvent controls, the calculated percentage of growth inhibition was plotted using GraphPad Prism software (version 10.0.2).

The next series relates to HEK293 (human, kidney). Nature of the series: MTT cytotoxicity HEK293. Type of series: cell-based. The note with it: HEK293, MTT, 72 h, n = 3, read-out: IC50 HEK293 (human, kidney). The method, then: as §1, §2, §3
In a further series the test system is HCT116 (human, colon). Nature of the series: MTT cytotoxicity HCT116. The format is cell-based. The settings on record: HCT-116, 72 h, n = 3. The method, then:
as §1, §2, §3

Another series relates to HeLa (human, cervix). The series can be described thus: MTT cytotoxicity HeLa. The format is cell-based. The note with it: 72 h, n = 3. The method, then: as §1, §2, §3
Series [2] deals with U2OS (human, osteosarcoma). The series can be described thus: MTT cytotoxicity U2OS. The format is cell-based. The note with it: 72 h, n = 3. The procedure: as §2, §3
The next series has as its system Huh-7.5 (human, liver). Nature of the series: MTT cytotoxicity Huh-7.5. Type of series: cell-based. The note with it: Huh7.5, 72 h, n = 3. The procedure: as §1, §2, §3
A further series deals with U-2 OS cells. The series can be described thus: Mitochondrial superoxide formation (MitoSOX Red). Type of series: cell-based, human. The settings on record: n = 6. The procedure: CYS was tested for its potential to induce oxidative stress in U-2 OS cells. Therefore, 120 µL of a cell suspension in McCoy’s (+10% FBS) containing 5 × 10^4 cells/mL were seeded into black 96-well imaging plate (BD Falcon). The plates were incubated for two days (37 °C, 5% CO2) until the cells reached approximately 70% confluence. Subsequently, the cells were washed with HBSS buffer, prior to adding CYS (20 µM) and the ROS inducer menadione (50 µM) as positive control, along with the staining solution (HBSS, calcium, magnesium, 5 µM MitoSOX red and 10 µg/mL Hoechst (Thermo)). To check for ROS protective properties, menadione (50 µM) was added directly to the staining solution. […] Afterwards, the cells were washed twice with HBSS. The cells were imaged using an automated fluorescence microscope (Celldiscoverer 7, Zeiss) (excitation: […]) to analyze the fluorescence intensity of the superoxide tracker MitoSOX red. The experiment was carried out with six replicates per condition. Quantification was done by high-content image analysis using the ZEN software (version 3.4, blue edition, Zeiss). Data presentation was done using GraphPad Prism (version 10.0.3) with ordinary one-way ANOVA including multiple comparisons to the control group for statistical analysis of the sample without ROS induction via menadione in the staining solution. Multiple unpaired t test was used to compare samples for ROS protective properties, which were incubated with menadione in the staining solution.

Series [3] is described as follows: Metabolic stability in mouse hepatocytes. The format is in vitro ADME. The method, then:
For the evaluation of combined phase I and phase II metabolic stability, the compound (1 μM) was incubated with 0.25 × 10^6 cells/mL of pooled mouse hepatocytes (Xenotech, Kansas City, USA). Cells were thawed in Leibovitz’s L-15 medium without phenol red (ThermoFisher Scientific, Waltham, USA). Briefly, cells were transferred into 50 mL of medium, followed by centrifugation at 55 g for 6 min. Supernatant was discarded, and the cell count was determined after gently resuspending the cell pellet in 1mL of medium. Hepatocytes were diluted to 0.5 × 10^6 cells/mL and incubated at 37 °C, 700 rpm for 10 min, to achieve the desired final cell count after addition of an equal volume of test compounds in medium, leading to a final test concentration of 1 µM at 1% DMSO. […] For the determination of metabolism in the presence of cobicistat, this drug was added together with test compounds in the desired concentration range. The metabolic stability of testosterone, verapamil, ketoconazole and 7-hydroxycoumarine were determined in parallel to confirm the enzymatic activity of mouse hepatocytes. […] Concentration of the remaining test compound at the different time points was analyzed by HPLC-MS/MS (Vanquish Flex coupled to a TSQ Altis Plus, Thermo Fisher, Dreieich, Germany) and used to determine half-life (t1/2). Intrinsic clearance was calculated as follows:2 CLintµL/min×10^6cells=Incubation volumeµL×ln(2)/Cells in incubation mixture[10^6]×t1/2
For metabolite identification studies, test compounds were incubated at 10 µM final concentration and samples were analyzed using HPLC-HRMS (Ultimate 3000 coupled to a Q Exactive Focus, Thermo Fisher, Dreieich, Germany). […] Blank samples using DMSO were run in parallel for background subtraction. Sample processing for metabolite identification was performed using Compound Discoverer 3.2 (Thermo Fisher, Dreieich, Germany). Metabolites were identified based on mass shifts and feasibility of the metabolic reaction, also in view of MS peak intensities over time.

The nature of a further series: Mouse plasma stability. The note with it: read-out: Mouse plasma t1/2. Type of series: in vitro ADME.
The nature of the next series: physchem. The settings on record: zebrafish embryo incubation medium, aqueous buffer, kinetic from dmso stock.

T1 sequence (P11388 whole entry): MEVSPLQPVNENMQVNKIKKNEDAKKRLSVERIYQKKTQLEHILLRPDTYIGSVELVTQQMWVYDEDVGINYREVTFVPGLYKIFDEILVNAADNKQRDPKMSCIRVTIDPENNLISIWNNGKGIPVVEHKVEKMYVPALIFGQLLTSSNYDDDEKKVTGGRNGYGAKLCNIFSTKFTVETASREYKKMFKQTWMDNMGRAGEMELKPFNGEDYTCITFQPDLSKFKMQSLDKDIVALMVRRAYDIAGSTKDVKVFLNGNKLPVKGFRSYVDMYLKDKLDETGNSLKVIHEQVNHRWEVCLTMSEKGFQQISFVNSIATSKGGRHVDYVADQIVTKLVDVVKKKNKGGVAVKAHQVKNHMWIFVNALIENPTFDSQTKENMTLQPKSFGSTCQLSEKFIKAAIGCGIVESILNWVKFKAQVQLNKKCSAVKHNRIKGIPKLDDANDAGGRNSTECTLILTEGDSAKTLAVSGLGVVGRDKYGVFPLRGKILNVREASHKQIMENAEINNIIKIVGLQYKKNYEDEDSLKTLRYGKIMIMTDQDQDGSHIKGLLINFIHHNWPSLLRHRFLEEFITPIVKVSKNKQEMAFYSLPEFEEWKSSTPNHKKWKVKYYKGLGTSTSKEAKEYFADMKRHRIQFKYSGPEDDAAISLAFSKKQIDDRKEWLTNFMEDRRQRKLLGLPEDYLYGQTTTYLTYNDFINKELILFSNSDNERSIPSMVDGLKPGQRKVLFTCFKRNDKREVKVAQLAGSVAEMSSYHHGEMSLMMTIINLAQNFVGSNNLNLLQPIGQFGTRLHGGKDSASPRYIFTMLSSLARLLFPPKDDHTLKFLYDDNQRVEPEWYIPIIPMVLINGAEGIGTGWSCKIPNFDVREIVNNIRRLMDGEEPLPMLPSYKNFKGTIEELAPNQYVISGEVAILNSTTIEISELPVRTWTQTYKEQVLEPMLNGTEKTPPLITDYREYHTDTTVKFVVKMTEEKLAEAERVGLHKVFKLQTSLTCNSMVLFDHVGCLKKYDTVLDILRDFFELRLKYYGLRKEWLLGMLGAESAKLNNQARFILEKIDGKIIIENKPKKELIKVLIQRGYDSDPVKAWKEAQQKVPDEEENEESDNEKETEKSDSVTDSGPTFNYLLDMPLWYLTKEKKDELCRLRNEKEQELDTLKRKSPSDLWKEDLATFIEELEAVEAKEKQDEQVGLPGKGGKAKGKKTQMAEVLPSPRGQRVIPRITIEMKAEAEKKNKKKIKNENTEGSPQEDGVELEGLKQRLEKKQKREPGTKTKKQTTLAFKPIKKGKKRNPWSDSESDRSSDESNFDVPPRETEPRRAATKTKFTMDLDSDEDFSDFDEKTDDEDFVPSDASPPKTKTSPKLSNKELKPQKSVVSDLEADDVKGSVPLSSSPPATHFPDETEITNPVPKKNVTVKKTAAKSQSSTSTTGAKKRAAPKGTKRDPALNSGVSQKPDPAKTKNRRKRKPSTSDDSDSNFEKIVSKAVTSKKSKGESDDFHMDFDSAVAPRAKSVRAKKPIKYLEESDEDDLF

Consider `CO[C@H](C(N)=O)[C@H](NC(=O)c1ccc(NC(=O)c2ccc(C#N)cc2)cc1)C(=O)Nc1ccc(C(=O)Nc2ccc(C(=O)Nc3ccc(C(=O)O)cc3)c(O)c2OC(C)C)cc1` [CN-861-2], for which the IC50 in series [1] is 6.26 ± 4.69 µM; in the series on HepG2 (human, liver), > 20 µM; in the series with HEK293 (human, kidney), > 20 µM; with HCT116 (human, colon), > 20 µM; in the series on HeLa (human, cervix), > 37 µM; in series [2], > 20 µM. Further, the 50% inhibitory concentration (IC50) with Huh-7.5 (human, liver) was > 20 µM. Also, the “basal superoxide radical levels vs DMSO control” value in the series with U-2 OS cells (20 µM, MitoSOX Red, no menadione) was “decrease of superoxide radical levels”. For the same compound, the “menadione-induced superoxide formation on co-treatment” value in the series on U-2 OS cells (CYS 20 µM + menadione 50 µM) is given as “slight yet statistically significant increase in superoxide production”. For the same compound, the “stable in murine hepatocytes for” value in series [3] is recorded as > 3 h. The hepatocyte CLint at 1 µM in series [3] (mouse, pooled mouse hepatocytes, 1 μM, 0.25 × 10^6 cells/mL) was < 5.1 µL/min/1e6 cells. Besides, the half-life at 1 µM in [3] (mouse, pooled mouse hepatocytes, 1 μM, 0.25 × 10^6 cells/mL, read-out: Mouse Hepatocytes t1/2) was > 3 h. Besides, in “Mouse plasma stability”, the half-life was > 4 h. In “physchem”, this compound gave a solubility of 20 µM (≈ 16.8 µg/mL).
